Experimental data from patent US20080280989A1, “Hydroxybenzamide Derivatives, the Method For Preparing Thereof and the Cosmetic Composition Containing the Same” (priority 2005, published 2008).
Where two headings read alike, the source gives them in different places.

Tests used:
[1] = Thermal stability according to isothermal discoloration test; assay type: physicochemical; design: key: 1: no discoloration; 2: discoloration into a light yellow color; 3: discoloration into a dark yellow color; 4: discoloration into a dark brown color; conditions: 1000 pm in dimethylformaldehyde:ethanol:water=5:3:2, 40° C., naked eyes
Method: The hydroxybenzamide compounds according to Examples 18 were determined for their thermal stability as compared to resveratrol.
The test was performed by dissolving each of the hydroxybenzamide compounds according to Examples 1˜8 into a test solvent (dimethylformaldehyde:ethanol:water=5:3:2) in a concentration of 1000 pm, and by allowing the test samples to be left in an isothermal chamber at 40° C. for a test period of 30, 60 and 90 days. Then, the test samples were observed by the naked eyes to determine discoloration degrees.
Discoloration of the samples was graded into Grade 1 Grade 4 as follows:
2: discoloration into a light yellow color
3: discoloration into a dark yellow color
4: discoloration into a dark brown color

procollagen type(I) = assay: Stimulation of collagen biosynthesis (procollagen type(I) ELISA); assay type: cell-based; conditions: Fibroblasts, 10 μM in serum-free medium, 24 hours, non-treated group taken as 100; for activity at 10 µM: Fibroblast
Method: The hydroxybenzamide compounds according to Examples 18 were determined for their effects of stimulating collagen biosynthesis, and the results were compared to the effects obtained from resveratrol and tocopherol.
Fibroblasts were seeded into a 24-well microtiter plate in a cell count of 10^5 cells per well and cultured to a growth level of 90%. The cultured product was further cultured in a serum-free DMEM medium for 24 hours. Next, the cultured product was treated with the hydroxybenzamide compounds according to Examples 1˜8, resveratrol and tocopherol, dissolved in a serum-free medium at a concentration of 10 μM, and then was cultured in a CO2 incubator for 24 hours. After decanting the supernatant, procollagen was determined by using a procollagen type(I) ELISA kit. The results are shown in the following Table 2, wherein the biosynthesis activity is expressed based on the biosynthesis activity of non-treated group, taken as 100.

[2] = test system: Human keratinocyte HaCaT cell lines; assay: Anti-oxidative effect using HaCaT model (lipid peroxidation assay kit); assay type: cell-based; conditions: for activity at 100 µM: Homo sapiens, read-out: Lipid peroxidation (%)
Method: The hydroxybenzamide compounds prepared in Examples 1-8 were determined for their anti-oxidative effects.
Human keratinocyte HaCaT cell lines were pipetted into 60 mm dishes in a cell count of 1.0×10^6 cells per dish, and were cultured by using a DMEM (FBS 10%) medium containing penicillin/streptomycin added thereto under the conditions of 37° C./5% CO2 for 1 day. Then, the cultured product was treated with each of the hydroxybenzamide compounds according to Examples 1˜8 in a concentration of 10˜4 mol. Also, the same cultured product was treated with the same concentration of tocopherol and resveratrol for 24 hours. In addition to the above, the cultured product was treated with t-BHT (t-butyl hydroperoxide) and cultured under the conditions of 37° C./5% CO2 for 4 hours to obtain cells. The cells were subjected to lysis by repeating freezing/thawing cycles. The following Test procedure was based on the method described in the assay kit used in this example.
In this example, Calbiochem Lipid peroxidation assay kit (Cat. No. 437634) was used as a test reagent, and lipid peroxidation was determined by using the mechanism of formation of stable compounds at 586 nm from the reaction between the above reagent and ester peroxides linked to long-chain unsaturated fatty acids, such as malondialdehyde (MDA) and 4-hydroxyalkenal (4-hydroxy-2(E)-nonenal, 4-HNE).

collagenase = assay: Effect of inhibiting collagenase expression; assay type: cell-based; conditions: Human fibroblasts, 10˜4M in serum-free DMEM, non-treated group taken as 100; for activity at 100 µM: Fibroblast
Method: The hydroxybenzamide compounds according to Examples 1˜8 were determined for their effects of inhibiting collagenase expression, and the results were compared to the effects obtained from resveratrol and tocopherol.
Human fibroblasts were introduced into a 96-well microtiter plate containing a DMEM (Dulbecco's Modified Eagle's Media) with 2.5% fetal bovine serum (FBS) in a cell count of 5,000 cells per well and cultured to a growth level of 90%. Then, the cultured product was further cultured in a serum-free DMEM medium for 24 hours. Next, the cultured product was treated with the hydroxybenzamide compounds according to Examples 18, resveratrol and tocopherol, dissolved in a serum-free DMEM medium at a concentration of 10˜4M, and then the cell culture was collected. The cell culture was evaluated for the production of collagenase by using a commercially available collagenase measuring system (Amersham Pharmacia, USA). First, the cell culture was introduced into a 96-well plate coated uniformly with primary collagenase antibodies, and then an antigen-antibody reaction was carried out in an incubator for 3 hours. After 3 hours, secondary collagenase antibodies, to which chromophores were bound, were introduced into the 96-well plate, and the reaction was further carried out for 15 minutes. After 15 minutes, a color developer was added thereto to develop a color at room temperature for 15 minutes, and 1M sulfuric acid was further added thereto to quench the reaction (color development). […] The yellow-colored 96-well plate was measured for absorptivity at 405 nm by using an absorption spectrometer, and a degree of collagenase synthesis was calculated according to the following Mathematical Formula 1. At this time, absorptivity of the cell culture in a non-treated group was used as a control.
Collagenase expression (%)=Absorptivity of the group treated with the corresponding sample/Absorptivity of the control×100 [Mathematical Formula 1]
The collagenase expression inhibiting activity was expressed based on the collagenase synthesis activity of the non-treated group, taken as 100.

[3] = HaCaT cells, sample at 10˜4 mol for 24 hours, then t-BHT 4 hours, non-treated group = 100

Molecule	Discoloration after 30 days [1]	Discoloration after 60 days [1]	Discoloration After 90 days [1]	activity at 10 µM (procollagen type(I)) [%]	activity at 100 µM [2, 3] [%]	activity at 100 µM (collagenase) [%]	activity at 100 µM ([2]; HaCaT, 24 h) [%]	Collagen biosynthesis activity (%) (procollagen type(I))	Lipid peroxidation (%) [2, 3] [%]	Collagenase expression (%) (collagenase)
O=C(Nc1ccc(O)cc1)c1cc(O)cc(O)c1 [Ex. 1, 3,5-dihydroxy-N-(4-hydroxyphenyl)benzamide]	1	1	1	143	170	67				
O=C(Nc1ccccc1O)c1cc(O)cc(O)c1 [Ex. 2, 3,5-dihydroxy-N-(2-hydroxyphenyl)benzamide]	1	1	1	121	180	69				
O=C(Nc1cccc(O)c1)c1cc(O)cc(O)c1 [Ex. 3, 3,5-dihydroxy-N-(3-hydroxyphenyl)benzamide]	1	1	1	122	182	71				
COc1ccc(NC(=O)c2cc(O)cc(O)c2)cc1 [Ex. 4, 3,5-dihydroxy-N-(4-methoxyphenyl)benzamide]	1	1	1	118	186	74				
COc1ccc(NC(=O)c2cc(O)cc(O)c2)cc1OC [Ex. 5, 3,5-dihydroxy-N-(3,4-dimethoxyphenyl)benzamide]	1	1	1	115	176	72				
COc1cc(NC(=O)c2cc(O)cc(O)c2)cc(OC)c1 [Ex. 6, 3,5-dihydroxy-N-(3,5-dimethoxyphenyl)benzamide]	1	1	1	116	172	71				
COc1cc(NC(=O)c2cc(O)cc(O)c2)cc(OC)c1OC [Ex. 7, 3,5-dihydroxy-N-(3,4,5-trimethoxyphenyl)benzamide]	1	1	1	119	179	70				
COc1ccc(NC(=O)c2cc(O)cc(O)c2)cc1O [Ex. 8, 3,5-dihydroxy-N-(3-hydroxy-4-methoxyphenyl)benzamide]	1	1	1	120	181	69				
Oc1ccc(C=Cc2cc(O)cc(O)c2)cc1 [Resveratrol, reference compound]	2	3	4	111	178	81				
CC(C)(C)OO [t-BHT, t-butyl hydroperoxide, reference compound]							320			
Tocopherol [reference compound]								113	250	95
